Non-standard residues stand in square brackets, D forms with d. Residues, ends and D or L forms follow the SMILES beside them. ξ: configuration not given here. *: point of attachment. ξF = NC(Cc1ccccc1)C(=O)O; Cbz = O=C(OCc1ccccc1)*
Target: T1, Solute carrier family 12 member 5 (Homo sapiens, UniProt Q9H2X9)
T1 sequence (Q9H2X9 whole entry): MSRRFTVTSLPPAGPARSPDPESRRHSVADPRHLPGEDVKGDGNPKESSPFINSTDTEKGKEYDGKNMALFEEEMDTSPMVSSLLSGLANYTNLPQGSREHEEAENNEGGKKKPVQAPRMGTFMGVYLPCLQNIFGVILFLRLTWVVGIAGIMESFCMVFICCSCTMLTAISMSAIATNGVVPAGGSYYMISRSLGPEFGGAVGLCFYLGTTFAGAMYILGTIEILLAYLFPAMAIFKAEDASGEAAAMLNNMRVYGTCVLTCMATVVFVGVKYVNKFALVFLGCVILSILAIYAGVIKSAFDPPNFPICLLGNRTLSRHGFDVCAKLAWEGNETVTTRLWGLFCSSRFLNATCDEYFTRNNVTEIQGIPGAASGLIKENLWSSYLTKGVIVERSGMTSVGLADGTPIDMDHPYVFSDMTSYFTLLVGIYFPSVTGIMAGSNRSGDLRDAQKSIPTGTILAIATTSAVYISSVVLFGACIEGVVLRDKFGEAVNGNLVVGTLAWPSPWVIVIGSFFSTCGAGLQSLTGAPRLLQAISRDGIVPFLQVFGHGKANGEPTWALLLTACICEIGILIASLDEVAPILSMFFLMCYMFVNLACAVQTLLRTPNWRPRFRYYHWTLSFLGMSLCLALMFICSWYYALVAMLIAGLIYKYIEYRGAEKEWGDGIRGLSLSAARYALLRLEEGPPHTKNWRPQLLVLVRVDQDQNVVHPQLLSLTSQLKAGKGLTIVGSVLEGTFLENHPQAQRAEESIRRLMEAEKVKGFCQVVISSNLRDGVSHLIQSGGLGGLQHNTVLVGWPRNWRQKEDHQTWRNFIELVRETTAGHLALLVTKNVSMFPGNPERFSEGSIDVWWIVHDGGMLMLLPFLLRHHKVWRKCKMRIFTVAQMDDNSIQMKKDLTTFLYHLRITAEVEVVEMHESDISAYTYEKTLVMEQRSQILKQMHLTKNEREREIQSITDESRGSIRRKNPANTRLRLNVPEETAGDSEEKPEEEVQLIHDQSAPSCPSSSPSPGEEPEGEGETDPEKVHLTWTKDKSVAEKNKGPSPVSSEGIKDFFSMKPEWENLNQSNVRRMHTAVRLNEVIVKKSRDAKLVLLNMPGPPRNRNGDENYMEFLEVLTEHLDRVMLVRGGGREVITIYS
Assay: concentration-response of KCC2 transport modulators – cell-based, HEK293 KCC2, FluoZin-2 fluorescence, dose response (AID 1736)
Conditions: not given

Row | SMILES | EC50 [µM]
1 | Cc1onc(C(=O)N2CCN(Cc3ccccc3)CC2)c1[N+](=O)[O-] [(4-benzylpiperazin-1-yl)-(5-methyl-4-nitro-1,2-oxazol-3-yl)methanone] | 59.4
2 | O=C(/C=C/c1ccco1)N1CCC(Cc2ccccc2)CC1 [(E)-1-(4-benzylpiperidin-1-yl)-3-(furan-2-yl)prop-2-en-1-one] | 6.56
3 | CNc1ccc2oc(C[C@H]3O[C@@]4(CC[C@H]3C)O[C@H]([C@H](C)C(=O)c3ccc[nH]3)[C@H](C)C[C@H]4C)nc2c1C(=O)O [MLS001056783] | 11.3
4 | Sc1nnc(C2(c3ccccc3)CCCC2)o1 [5-(1-phenylcyclopentyl)-3H-1,3,4-oxadiazole-2-thione] | 3.3
5 | O=C(CSc1nnc(-c2ccc(F)cc2)o1)N1CCN(C(=O)c2ccco2)CC1 [2-[5-(4-Fluoro-phenyl)-[1,3,4]oxadiazol-2-ylsulfanyl]-1-[4-(furan-2-carbonyl)-piperazin-1-yl]-ethanone] | 7.01
6 | CC(C)NC(=S)NNC1=c2cc(C(C)C)ccc2=NC1=O [SMR000242097] | 5.13
7 | Cc1cccc(NC2=NN=C(c3ccccc3F)CS2)c1C | 27.9
8 | CC1Cc2ccccc2N1C(=O)CSc1nnnn1Cc1ccccc1 (stereo unspecified) [1-(2-methyl-2,3-dihydroindol-1-yl)-2-[[1-(phenylmethyl)-1,2,3,4-tetrazol-5-yl]sulfanyl]ethanone] | 13.6
9 | CN(C)S(=O)(=O)c1cccc(NC(=O)c2cc3c(cc2Cl)N2CCCCC=C2NS3(=O)=O)c1 [2-chloranyl-N-[3-(dimethylsulfamoyl)phenyl]-5,5-bis(oxidanylidene)-8,9,10,11-tetrahydro-7H-azepino[2,1-c][1,2,4]benzothiadiazine-3-carboxamide] | 281
10 | CCCC1=NN2C(=N)/C(=C\c3cc(C)n(-c4cc(C)cc(C)c4)c3C)C(=O)N=C2S1 [MLS000588586] | 6.75
11 | Cc1ccc(C(=O)O)cc1-c1ccc(C=C2NC(=O)N(c3ccccc3)C2=O)o1 [3-[5-[(E)-(2,5-dioxo-1-phenylimidazolidin-4-ylidene)methyl]furan-2-yl]-4-methylbenzoic acid] | 14.8
12 | Cc1ccc2c(c1)nnn2C1CCN(S(=O)(=O)c2cccc(S(=O)(=O)N(C)C)c2)CC1 [MLS000033642] | 3.38

Continued, values first:

Row | EC50 [µM] | SMILES
13 | 1.78 | COC(=O)c1sccc1NC(=S)OC [3-(methoxycarbothioylamino)thiophene-2-carboxylic acid methyl ester]
14 | 2.66 | CC1CCN(C(=O)CSc2ccc(-c3ccc(F)cc3)nn2)CC1 [2-[6-(4-Fluoro-phenyl)-pyridazin-3-ylsulfanyl]-1-(4-methyl-piperidin-1-yl)-ethanone]
15 | 3.01 | CCOC(=O)CNC(=O)C(Cc1ccccc1)NC(=O)OCc1ccccc1 (stereo unspecified) [2-[[1-oxo-3-phenyl-2-(phenylmethoxycarbonylamino)propyl]amino]acetic acid ethyl ester] (Cbz-[ξF]-Gly-OEt)
16 | 3.26 | O=C(Cn1nc(-c2ccccc2)ccc1=O)NCc1ccc2c(c1)OCO2 [2-(6-keto-3-phenyl-pyridazin-1-yl)-N-piperonyl-acetamide]
17 | 0.993 | O=C(CNC(=O)/C(=C\c1ccc(Br)cc1)NC(=O)c1ccccc1)OCc1ccccc1 [(phenylmethyl) 2-[[(E)-2-benzamido-3-(4-bromophenyl)prop-2-enoyl]amino]ethanoate]
18 | 1.74 | Cc1cc([N+](=O)[O-])ccc1NCc1ccccc1 [2-methyl-4-nitro-N-(phenylmethyl)aniline]
19 | 0.991 | Sc1nnc(CCc2ccc(Cl)cc2)o1 [5-[2-(4-chlorophenyl)ethyl]-1,3,4-oxadiazole-2-thiol]
20 | 2.31 | Cc1ccc(Nc2nnc(SCC(=O)c3ccc(Br)s3)s2)c(C)c1 [1-(5-bromanylthiophen-2-yl)-2-[[5-[(2,4-dimethylphenyl)amino]-1,3,4-thiadiazol-2-yl]sulfanyl]ethanone]

Same assay, conditions: inactive by the depositor's call

Row | EC50 [µM] | SMILES
21 | 22.6 | Cc1cccc(N2CCN(C(=O)CCCn3c(=S)[nH]c4cc5c(cc4c3=O)OCO5)CC2)c1C [MLS000095366]

Reference: BindingDB's records for doi:10.7270/Q2TX3CSC (Vanderbilt Screening Center for GPCRs, Ion Channels and …, 2009)
